Row | Compound | logP
1 | COc1ccc(Cc2nccc3cc(OC)c(OC)cc23)cc1OC | 2.95
2 | CCc1cc(CC(C#N)C#N)cc(CC)c1O | 4.12
3 | N#CC(C#N)Cc1ccc(O)cc1 | 3.08
4 | O=C1O[C@H]([C@@H](O)CO)C(O)=C1O | -1.85
5 | CN1C(C(=O)Nc2ccccn2)=C(O)c2ccccc2S1(=O)=O | 3.06
6 | N[C@@H](Cc1ccccc1)C(=O)O (racemic) | -1.38
7 | COS(=O)c1ccc(O)cc1 (stereo not given) | 0.58
8 | CCN(CC)CCOC(=O)c1ccc(N)cc1 | 2.14
9 | CCCCCCCCCNCc1ccc(C)cc1 | 5.7

Further lines, results first:

Row | logP | Compound
10 | 3.51 | CCCCNc1ccc(C(=O)OCCN(C)C)cc1
11 | 3.43 | Cc1cnc(NC(=O)C2=C(O)c3ccccc3S(=O)(=O)N2C)s1
12 | 4.19 | COc1ccccc1OCCNCC(O)COc1cccc2[nH]c3ccccc3c12 (stereo not given)
13 | 3.15 | CC(C)(C)S(=O)(=O)CC(Cc1cccc2ccccc12)C(=O)NC(Cc1cnc[nH]1)C(=O)NC(CC1CCCCC1)C(O)C(O)C1CC1 (stereo not given)
14 | 2.75 | CC(C)(C)S(=O)(=O)CC(Cc1ccccc1)C(=O)NC(Cc1cnc[nH]1)C(=O)NC(CC1CCCCC1)C(O)C(O)C1CC1 (stereo not given)
15 | 5 | CCCc1c2c(c(O)c3c(=O)cc(C(=O)O)oc13)CCCC2

Source: the OPERA property sets (Mansouri et al. 2018)
